Type in all cases: cell-based
Experiment [1] concerns IL-6 release from human U-2 OS osteosarcoma cells stably transfected with human ER-α. As to the kind of experiment: Inhibition of IL-6 release. To be noted: U2OS; U-2 OS cells transfected with human ER-α, stimulated with 2.5 ng/ml TNFα and 1 ng/ml IL-1, IL-6 by ELISA after 24 h, relative to vehicle. How it is done: Illustrative benzopyranone compounds were tested for their ability to inhibit IL-6 release from human U-2 OS osteosarcoma cells stably transfected with human ER-α. (Stein, B.; Yang, M. X. Mol. Cell. Biol 15: 4971-4979, 1995; Poli, V. et. al., EMBO J. 13:1189-1196, 1994). […] Benzopyranone compounds having an IC50<100 nM are particularly useful as bone resorption inhibitors in vivo. Accordingly, the compounds of this assay, illustrative benzopyranone compounds, are particularly useful for the treatment of osteoporosis, Paget's disease and metastatic bone cancer. These compounds are also useful as anti-cancer agents as elevated IL-6 levels are responsible for certain cancers such as multiple myeloma, prostate cancer, ovarian cancer, renal carcinoma and cervical carcinoma.
Human U-2 OS osteosarcoma cells (ATCC) were stably transfected with expression vectors for human full-length ER-α using standard molecular biology techniques. Stable subclones were generated that expressed high levels of ER-α mRNA. The expression of ER-α was confirmed using RNase protection analysis.
Cells were plated into 96-well plates at a density of 80,000 cells per well in phenol red-free media with charcoal-stripped fetal calf serum. Twenty four hours later, cells were either treated with vehicle (0.2% DMSO) or test compound (0.01 B 100 nm in 0.2% DMSO). Thirty minutes later cells were stimulated with 2.5 ng/ml TNFα and 1 ng/ml IL-1. Twenty-four hours later the media supernatant was analyzed for cytokine production (IL-6) using commercially available ELISA kits following the manufacturer=s instructions. Cytokine production in the presence of vehicle (0.2% DMSO) was set to 100%. The results are expressed as IC50 (nM) values (Table 2) which is the concentration of the benzopyranone compound necessary to inhibit the production of IL-6 50% relative to the amount of IL-6 produced in the presence of vehicle.

Experiment [2] deals with MCF-7 breast cancer cells. As to the kind of experiment: Inhibition of MCF-7 breast cancer cell proliferation. The note with it: Homo sapiens, MCF7; 0.1 nM 17β-estradiol-dependent growth, 72 h, 3H-thymidine incorporation. How it is done: MCF-7 cells represent an excellent in vitro system to study the effects of compounds on estrogen-dependent breast cancer growth. (May, F.E.B.; Westley, B. R. J. Biol. Chem. 262:15894-15899, 1987). Benzopyranone compounds having an IC50<100 nM are particularly useful as anti-breast cancer agents in vivo.
MCF-7 breast carcinoma cells were plated in 24-well dishes at a density of 5×10^3 cells/well in phenol-red free DMEM:F-12 (1:1) medium containing 1% antibiotics, 0.05% mercaptoethanol, 0.01% ethanolamine, 0.42 ng/mL sodium selenite and 5% charcoal-stripped FCS.
Illustrative benzopyranone compounds (0.1-1000 nM in 0.2% DMSO) and 0.1 nM 17β-estradiol were added to the cultured MCF-7 breast cancer cells for 72 h. Subsequently, 3H-labeled thymidine was added and its incorporation into cells was measured following 4h incubation. The results are expressed as IC50 (nM) values (Table 2) which is the concentration of the benzopyranone compound necessary to inhibit the growth of MCF-7 breast cancer cells by 50% relative to controls.

In experiment [3] the test system is BG-1 ovarian carcinoma cells. As to the kind of experiment: Inhibition of BG-1 ovarian carcinoma cell proliferation. To be noted: 0.1 nM 17β-estradiol-dependent growth, 72 h, 3H-thymidine incorporation. How it is done:
BG-1 cells serve as a useful in vitro model for the evaluation of the effects of antiestrogenic compounds on ovarian tumor growth (Greenberger, L. M. et. al., Clin. Cancer Res. 7:3166-3177, 2001). Benzopyranone compounds having an IC50<100 nM are particularly useful as anti-ovarian cancer agents in vivo.
BG-1 ovarian carcinoma cells were plated in 24-well dishes at a density of 5×10^3 cells/well in phenol-red free DMEM:F-12 (1:1) medium containing 1% antibiotics, 0.05% mercaptoethanol, 0.01% ethanolamine, 0.42 ng/mL sodium selenite and 5% charcoal-stripped FCS. Illustrative benzopyranone compounds (0.1-1000 nM in 0.2% DMSO) and 0.1 nM 17β-estradiol were added to the cultured BG-1 ovarian carcinoma cells and incubated for 72 h. Subsequently, ^3H-labeled thymidine was added and its incorporation into cells was measured following 4h incubation. The results are expressed as IC50 (nM) values (Table 2) which is the concentration of the benzopyranone compound necessary to inhibit the growth of BG-1 ovarian carcinoma cells by 50% relative to controls.

For the compound `O=c1oc2cc(O)ccc2c(Cc2ccc(OCCN3CCCC3)cc2)c1-c1ccc(C(F)(F)F)cc1`, the values for the IC50 in experiment [1], in experiment [2] and in experiment [3] were 1.5 nM, 13.6 nM and 13.6 nM, respectively.

With `O=c1oc2cc(O)ccc2c(Cc2ccc(OCCN3CCCC3)cc2)c1-c1ccc(C(F)(F)F)cc1Cl`, the results for the IC50 in experiment [1], in experiment [2] and in experiment [3] were 0.5 nM, 4.5 nM and 4.65 nM, respectively.

Take `O=c1oc2cc(O)ccc2c(Cc2ccc(OCCN3CCCC3)cc2)c1-c1ccc(C(F)(F)F)cc1C(F)(F)F`: the values for the IC50 in experiment [1], in experiment [2] and in experiment [3] were 1 nM, 26 nM and 5.5 nM, respectively.

`O=c1oc2cc(O)ccc2c(Cc2ccc(OCCN3CCCC3)cc2)c1-c1ccc(Cl)cc1C(F)(F)F`: the IC50 in experiment [1] came to 0.4 nM; in experiment [2] it was 3 nM; in experiment [3], 2.3 nM.

With `O=c1oc2cc(O)ccc2c(Cc2ccc(OCCN3CCCC3)cc2)c1-c1ccc(Cl)cc1`, the IC50 came out at 0.4 nM in experiment [1], 26 nM in experiment [2] and 5.8 nM in experiment [3].

Turning to `O=c1oc2cc(O)ccc2c(Cc2ccc(OCCN3CCCC3)cc2)c1-c1ccc(Cl)cc1Cl`, the IC50 in experiment [1] is 0.29 nM; in experiment [2], 6.5 nM; in experiment [3], 1.4 nM.

Values taken from patent publication US20070015817A1, “4-((4-(2-pyrrolidinylethoxy)phenyl)methyl)-3-(4-(trifluoromethyl)phenyl)-7-hydroxychromen-2one, pharmaceutically acceptable salts thereof and methods of use therewith” (priority 2002, published 2007).
